The source made the active and inactive calls.
Tests used:
HT-1080 = test: cytotoxicity in HT1080 fibrosarcoma cells, cell-based, fluorescence readout (AID 620); type: functional; settings: Homo sapiens
[1] = molecular target: Luciferin 4-monooxygenase (Photinus pyralis, UniProt P08659); test: Counter Screen for Luciferase-based Assay Positives. [Related pubchem assays: 620, 618, 411 ]
[2] = molecular target: T1, Neuropeptide Y receptor type 1 (Homo sapiens, UniProt P25929); test: Fluorescence-based counterscreen for agonists of NPY-Y2: cell-based high-throughput dose response assay for agonists of NPY-Y1.; type: functional
T1 sequence (P25929 whole entry): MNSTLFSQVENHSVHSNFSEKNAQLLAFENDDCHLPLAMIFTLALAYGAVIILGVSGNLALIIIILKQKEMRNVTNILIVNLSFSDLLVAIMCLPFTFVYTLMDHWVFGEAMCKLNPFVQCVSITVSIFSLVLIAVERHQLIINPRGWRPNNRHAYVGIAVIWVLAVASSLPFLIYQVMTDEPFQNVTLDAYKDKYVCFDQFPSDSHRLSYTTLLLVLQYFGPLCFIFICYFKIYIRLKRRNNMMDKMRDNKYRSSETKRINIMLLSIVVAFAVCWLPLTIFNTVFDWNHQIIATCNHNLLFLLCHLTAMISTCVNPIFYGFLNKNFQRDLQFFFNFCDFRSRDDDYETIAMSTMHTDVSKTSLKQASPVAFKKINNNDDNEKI

HEK293 = test: Fluorescence-based counterscreen for potentiators or agonists of NPY-Y2: cell-based high-throughput dose response assay to identify inhibitors of cyclic nucleotide gated ion channel (CNGC) activity. In this assay, the parental HEK293 cell line transfected with a cyclic-nucleotide gated ion channel (CNGC)-based cAMP sensor is used to measure inhibition of isoproterenol-induced CNGC activity by test compound.; type: functional; settings: Homo sapiens
[3] = molecular target: T2, Neuropeptide Y receptor type 2 (Homo sapiens, UniProt P49146); test: Fluorescence-based cell-based high-throughput dose response assay for agonists of NPY-Y2. [Related pubchem assays: 1703 (Screening assay (CNGC inhibitors).), 1359 (Screening assay (NPY-Y2 potentiators or agonists).), 1304 (Screening assay (NPY-Y1 potentiators or agonists).), 1710 (Screening assay (NPY-Y2 agonists).), 1791 (Summary AID.)]; type: functional
T2 sequence (P49146 whole entry): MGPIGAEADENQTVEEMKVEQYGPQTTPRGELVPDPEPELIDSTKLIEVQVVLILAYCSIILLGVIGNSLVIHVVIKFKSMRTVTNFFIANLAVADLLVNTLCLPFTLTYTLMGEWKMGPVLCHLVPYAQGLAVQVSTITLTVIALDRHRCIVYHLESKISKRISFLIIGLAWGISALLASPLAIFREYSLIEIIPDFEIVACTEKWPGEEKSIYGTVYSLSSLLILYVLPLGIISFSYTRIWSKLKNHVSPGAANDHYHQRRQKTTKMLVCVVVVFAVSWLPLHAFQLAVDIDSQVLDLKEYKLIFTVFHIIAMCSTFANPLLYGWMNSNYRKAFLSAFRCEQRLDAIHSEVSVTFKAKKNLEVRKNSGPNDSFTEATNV

[4] = Luminescent dose response cell-based high throughput screening assay for inhibitors of the Janus kinase 2 mutant JAK2V617F. [Related pubchem assays: 1446 (Primary screen.), 1521 (Confirmation assay.), 1486 (Counter screen.)]; type: functional
Protein RecA = molecular target: T3, Protein RecA (Mycobacterium tuberculosis, UniProt P9WHJ3); test: Fluorescence Cell-Free Homogeneous Dose Retest to Identify Inhibitors of RecA-Intein Splicing Activity. [Related pubchem assays (depositor defined):AID2097, AID2223, AID489010, AID492950]; type: functional
T3 sequence (P9WHJ3 whole entry): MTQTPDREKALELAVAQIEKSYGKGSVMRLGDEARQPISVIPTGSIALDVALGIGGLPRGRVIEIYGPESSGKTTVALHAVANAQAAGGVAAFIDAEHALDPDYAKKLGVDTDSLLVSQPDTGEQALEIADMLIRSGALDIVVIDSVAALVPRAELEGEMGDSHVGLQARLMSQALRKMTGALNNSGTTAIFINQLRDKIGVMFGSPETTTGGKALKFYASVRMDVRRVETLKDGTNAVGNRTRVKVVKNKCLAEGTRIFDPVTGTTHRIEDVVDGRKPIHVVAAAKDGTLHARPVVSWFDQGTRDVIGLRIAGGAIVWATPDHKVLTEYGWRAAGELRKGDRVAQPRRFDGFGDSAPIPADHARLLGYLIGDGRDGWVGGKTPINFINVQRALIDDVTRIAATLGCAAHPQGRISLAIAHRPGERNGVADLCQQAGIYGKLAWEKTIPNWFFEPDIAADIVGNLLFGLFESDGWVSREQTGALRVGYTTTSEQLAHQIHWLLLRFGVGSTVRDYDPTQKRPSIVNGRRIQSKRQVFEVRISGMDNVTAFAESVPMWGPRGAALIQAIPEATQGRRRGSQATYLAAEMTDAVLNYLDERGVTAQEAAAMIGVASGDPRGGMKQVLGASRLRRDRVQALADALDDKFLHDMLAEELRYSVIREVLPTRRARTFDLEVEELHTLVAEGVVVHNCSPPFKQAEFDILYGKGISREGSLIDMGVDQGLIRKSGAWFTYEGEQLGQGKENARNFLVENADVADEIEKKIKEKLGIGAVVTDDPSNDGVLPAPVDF

[5] = molecular target: T4, Replicative DNA helicase DnaB (Mycobacterium tuberculosis, UniProt P9WMR3); test: DnaB intein splicing inhibitors, dose response, biochemical, cell-free fluorescence (AID 449749); type: functional
T4 sequence (P9WMR3 whole entry): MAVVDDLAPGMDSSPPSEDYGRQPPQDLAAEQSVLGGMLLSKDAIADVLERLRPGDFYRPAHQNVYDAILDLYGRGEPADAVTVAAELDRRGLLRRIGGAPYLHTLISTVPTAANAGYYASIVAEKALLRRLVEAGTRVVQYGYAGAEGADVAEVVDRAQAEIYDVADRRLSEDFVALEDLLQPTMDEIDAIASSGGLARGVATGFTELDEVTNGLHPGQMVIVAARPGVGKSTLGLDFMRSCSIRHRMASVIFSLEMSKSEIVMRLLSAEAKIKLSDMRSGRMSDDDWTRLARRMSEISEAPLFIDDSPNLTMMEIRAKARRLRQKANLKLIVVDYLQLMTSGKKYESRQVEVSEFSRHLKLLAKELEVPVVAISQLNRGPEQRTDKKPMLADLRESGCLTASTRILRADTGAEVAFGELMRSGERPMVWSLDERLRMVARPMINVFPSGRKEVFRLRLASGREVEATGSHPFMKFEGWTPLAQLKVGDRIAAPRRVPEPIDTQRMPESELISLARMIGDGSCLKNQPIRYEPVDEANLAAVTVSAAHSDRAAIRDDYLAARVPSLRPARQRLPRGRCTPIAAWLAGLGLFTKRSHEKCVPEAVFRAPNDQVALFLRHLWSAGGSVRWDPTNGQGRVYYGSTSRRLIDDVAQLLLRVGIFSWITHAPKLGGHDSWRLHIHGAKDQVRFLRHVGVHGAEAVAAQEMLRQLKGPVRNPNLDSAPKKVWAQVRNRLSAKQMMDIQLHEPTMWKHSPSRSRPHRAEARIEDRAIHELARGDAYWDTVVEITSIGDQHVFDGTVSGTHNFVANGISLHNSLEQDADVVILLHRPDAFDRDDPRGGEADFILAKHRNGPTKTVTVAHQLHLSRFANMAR

[6] = A Cell Based Secondary Assay To Explore Cytotoxicity of Compounds that Sensitize Mycobacterium Tuberculosis to Beta-Lactam Antibiotics.; type: functional
[7] = molecular target: T5, Polyadenylate-binding protein 1 (Homo sapiens, UniProt P11940); test: PABP1 MLLE–PAM2 binding inhibitor potency, dose response, biochemical, fluorescence polarization, FITC-PAM2 peptide (AID 602259); type: functional; settings: read-out: IC50_Mean
T5 sequence (P11940 whole entry): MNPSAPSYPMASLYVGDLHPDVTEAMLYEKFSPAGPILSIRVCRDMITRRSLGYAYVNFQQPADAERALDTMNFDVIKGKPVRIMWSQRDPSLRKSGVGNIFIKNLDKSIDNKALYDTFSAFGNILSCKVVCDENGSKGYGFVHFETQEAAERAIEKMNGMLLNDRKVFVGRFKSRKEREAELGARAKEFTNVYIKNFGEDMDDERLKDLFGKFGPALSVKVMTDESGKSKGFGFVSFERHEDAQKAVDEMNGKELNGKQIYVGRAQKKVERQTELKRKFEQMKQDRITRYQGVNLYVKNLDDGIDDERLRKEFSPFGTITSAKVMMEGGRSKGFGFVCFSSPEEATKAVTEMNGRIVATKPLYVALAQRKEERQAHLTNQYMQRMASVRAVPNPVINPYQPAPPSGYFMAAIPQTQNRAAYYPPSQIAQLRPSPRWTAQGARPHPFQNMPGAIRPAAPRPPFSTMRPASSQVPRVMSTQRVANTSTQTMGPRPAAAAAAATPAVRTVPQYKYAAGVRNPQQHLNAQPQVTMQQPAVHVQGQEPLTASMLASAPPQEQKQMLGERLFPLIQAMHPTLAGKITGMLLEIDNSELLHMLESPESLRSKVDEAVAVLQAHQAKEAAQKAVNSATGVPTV

[8] = molecular target: T5, Polyadenylate-binding protein 1; test: PABP1 MLLE–PAM2 interaction inhibitors, dose response, miRNA deadenylation inhibitor project, biochemical, fluorescence polarization, Cy5-PAM2 peptide, secondary (AID 602260); type: functional; settings: read-out: IC50_Mean
[9] = Shn3 3'UTR reporter inhibitors, dose response, cell-based, Clone20 osteoblasts, firefly luciferase, cherry-picked (AID 624132); type: functional;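 also: firefly luciferase luminescence from reporter carrying the Shn3 3'UTR in osteoblasts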
[10] = molecular target: Potassium voltage-gated channel subfamily KQT member 2 (Rattus norvegicus, UniProt O88943, W236L); test: KCNQ2 channel potentiators, dose response, mechanism study for KCNQ2 potentiator project, cell-based, automated electrophysiology (AID 2603); type: functional
Potassium voltage-gated channel subfamily KQT member 2, sequence (O88943 whole entry W236L): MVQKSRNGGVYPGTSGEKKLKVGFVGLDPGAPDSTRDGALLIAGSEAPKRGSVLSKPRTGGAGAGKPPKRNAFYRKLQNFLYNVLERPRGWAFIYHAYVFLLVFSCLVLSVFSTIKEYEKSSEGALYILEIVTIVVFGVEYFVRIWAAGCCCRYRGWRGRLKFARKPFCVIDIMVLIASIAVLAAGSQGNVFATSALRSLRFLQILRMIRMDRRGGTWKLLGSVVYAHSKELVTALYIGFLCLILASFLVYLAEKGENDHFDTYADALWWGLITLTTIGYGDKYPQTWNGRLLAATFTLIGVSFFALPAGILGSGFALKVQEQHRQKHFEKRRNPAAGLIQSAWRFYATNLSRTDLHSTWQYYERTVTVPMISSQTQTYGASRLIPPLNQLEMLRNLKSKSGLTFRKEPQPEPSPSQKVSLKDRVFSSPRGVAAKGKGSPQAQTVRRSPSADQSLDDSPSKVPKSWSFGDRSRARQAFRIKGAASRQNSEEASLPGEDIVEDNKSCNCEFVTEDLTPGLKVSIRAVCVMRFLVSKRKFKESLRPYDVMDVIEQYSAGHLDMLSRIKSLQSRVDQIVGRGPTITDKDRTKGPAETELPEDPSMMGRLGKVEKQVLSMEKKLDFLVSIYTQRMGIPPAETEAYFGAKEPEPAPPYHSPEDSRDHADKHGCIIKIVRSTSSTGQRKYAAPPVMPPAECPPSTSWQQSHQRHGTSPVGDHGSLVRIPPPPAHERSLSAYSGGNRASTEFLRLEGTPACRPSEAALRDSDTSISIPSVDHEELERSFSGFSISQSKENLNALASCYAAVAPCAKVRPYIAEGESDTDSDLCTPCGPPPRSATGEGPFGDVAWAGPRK

[11] = molecular target: T6, High affinity choline transporter 1 (Homo sapiens, UniProt Q9GZV3); test: CHT inhibitors, dose response, cell-based, 5-point CRC, membrane potential dye (AID 504840); type: functional
T6 sequence (Q9GZV3 whole entry): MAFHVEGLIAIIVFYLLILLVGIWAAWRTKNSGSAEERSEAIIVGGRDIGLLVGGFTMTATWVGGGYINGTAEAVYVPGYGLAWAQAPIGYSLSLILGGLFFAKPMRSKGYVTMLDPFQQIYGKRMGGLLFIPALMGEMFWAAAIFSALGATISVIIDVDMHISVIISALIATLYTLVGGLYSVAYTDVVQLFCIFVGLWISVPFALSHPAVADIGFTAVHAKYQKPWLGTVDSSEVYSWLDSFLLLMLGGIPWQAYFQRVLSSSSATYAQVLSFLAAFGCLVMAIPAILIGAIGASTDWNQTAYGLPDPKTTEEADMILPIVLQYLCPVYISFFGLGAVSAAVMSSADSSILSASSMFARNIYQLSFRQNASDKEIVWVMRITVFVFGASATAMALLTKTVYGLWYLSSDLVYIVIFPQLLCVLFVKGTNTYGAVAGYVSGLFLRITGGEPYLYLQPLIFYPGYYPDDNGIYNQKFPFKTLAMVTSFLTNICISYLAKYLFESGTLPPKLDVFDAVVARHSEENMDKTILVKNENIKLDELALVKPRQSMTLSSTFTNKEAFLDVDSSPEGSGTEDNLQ

[12] = molecular target: T6, High affinity choline transporter 1; test: CHT inhibitors, dose response, cell-based, 10-point CRC, membrane potential dye (AID 588401); type: functional;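 also: membrane potential dye fluorescence of choline-evoked depolarization via CHT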
[13] = control 3'UTR Renilla luciferase suppression, dose response, counter-screen for Shn3 inhibitor project, cell-based, Clone20-Shn3RL, cherry-picked (AID 624133); type: functional
Vero = Vero cell cytotoxicity, cytotoxicity control for flavivirus capping enzyme inhibitors (AID 588742); type: functional; settings: Chlorocebus sabaeus
[14] = Luminescence Cell-Based Dose Response HTS to Identify Activators of Luciferase Translation or Activity in H4 […] Cells. [Related pubchem assays: 1829 (Project Summary), 1814 (Primary HTS)]; type: functional
H4 = test: Luminescence Cell-Based Dose Response HTS to Identify Activators of 5'UTR Stem-Loop Driven Prion Protein mRNA Translation in H4 Neuroglioblastoma Cells. [Related pubchem assays: 1829 (Project Summary), 1814 (Primary HTS)]; type: functional; settings: Homo sapiens
[15] = Luminescence Cell-Based Dose Response to Identify Activators of 5'UTR Stem-Loop Driven Prion Protein mRNA Translation in H4-C Neuroglioblastoma Cells. [Related pubchem assays: 1829 (Project Summary), 1814 (Primary HTS)]; type: functional
[16] = Luminescence Cell-Based Dose Response to Identify Activators of Luciferase Translation or Activity in H4-C Neuroglioblastoma Cells. [Related pubchem assays: 1829 (Project Summary), 1814 (Primary HTS)]; type: functional
[17] = Luminescence Cell-Based Dose Confirmation to Identify Activators of 5'UTR Stem-Loop Driven Alpha-Synuclein mRNA Translation in H4 Neuroglioblastoma Cells. [Related pubchem assays: 1829 (Project Summary), 1814 (Primary HTS)]; type: functional
[18] = molecular target: T7, Microphthalmia-associated transcription factor (Homo sapiens, UniProt O75030); test: TRPM1 promoter luciferase signal decrease, dose response, MITF inhibitor project, cell-based, SK-MEL-5, cherry-picked, set 3 (AID 493073); type: functional
T7 sequence (O75030 whole entry): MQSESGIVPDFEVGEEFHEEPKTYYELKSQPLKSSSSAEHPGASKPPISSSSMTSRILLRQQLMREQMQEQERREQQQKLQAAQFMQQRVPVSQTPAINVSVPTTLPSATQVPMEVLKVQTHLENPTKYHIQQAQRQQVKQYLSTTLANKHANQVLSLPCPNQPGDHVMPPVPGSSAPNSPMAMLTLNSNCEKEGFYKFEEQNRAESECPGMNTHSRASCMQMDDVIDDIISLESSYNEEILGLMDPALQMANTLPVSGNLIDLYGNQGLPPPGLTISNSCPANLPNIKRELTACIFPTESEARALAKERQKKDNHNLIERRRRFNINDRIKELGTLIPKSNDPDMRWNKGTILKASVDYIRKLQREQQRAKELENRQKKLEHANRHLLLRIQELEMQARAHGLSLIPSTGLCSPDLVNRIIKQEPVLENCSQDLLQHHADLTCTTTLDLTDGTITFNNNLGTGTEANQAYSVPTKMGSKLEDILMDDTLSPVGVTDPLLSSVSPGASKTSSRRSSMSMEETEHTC

Luciferin 4-monooxygenase, sequence (P08659 whole entry): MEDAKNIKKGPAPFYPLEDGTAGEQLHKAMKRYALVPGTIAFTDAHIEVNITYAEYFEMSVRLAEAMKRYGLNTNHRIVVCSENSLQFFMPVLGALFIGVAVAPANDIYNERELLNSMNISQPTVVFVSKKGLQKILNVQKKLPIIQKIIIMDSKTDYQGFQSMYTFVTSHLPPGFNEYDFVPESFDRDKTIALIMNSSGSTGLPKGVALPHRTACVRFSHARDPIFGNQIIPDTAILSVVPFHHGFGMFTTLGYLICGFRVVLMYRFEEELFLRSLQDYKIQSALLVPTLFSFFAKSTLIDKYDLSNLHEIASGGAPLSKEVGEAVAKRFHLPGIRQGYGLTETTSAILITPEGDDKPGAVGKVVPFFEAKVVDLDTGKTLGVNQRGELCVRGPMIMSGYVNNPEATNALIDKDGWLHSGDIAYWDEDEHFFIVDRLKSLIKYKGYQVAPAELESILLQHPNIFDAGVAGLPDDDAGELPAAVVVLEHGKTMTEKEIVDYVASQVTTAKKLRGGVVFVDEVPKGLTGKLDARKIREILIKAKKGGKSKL

## Cc1ccc(NC(=O)c2ccc3c(c2)OCCO3)cc1
HT-1080
  EC50: > 50 µM (not active)
[1]
  EC50: 0.81 µM (active)

## O=C(CCl)NC(=O)NC12CC3CC(CC(C3)C1)C2
[2]
  EC50: > 35.4 µM (not active)
HEK293
  EC50: > 35.4 µM (not active)
[3]
  EC50: > 35.4 µM (not active)
[4]
  IC50: 0.87 µM (active)
Protein RecA
  EC50: 5.47 µM (active)
[5]
  AC50: 12 µM (active)

## CCC(=O)N1CCN(c2ccc(NC(=S)NC(=O)c3ccc(OC)c([N+](=O)[O-])c3)cc2)CC1
[6]
  CC50: > 40 µM (active)
[7]
  IC50: > 66 µM (inactive)
[8]
  IC50: > 66 µM (inactive)

## Cc1ccc(CS(=O)(=O)c2ncc(Cl)c(C(=O)Nc3nnc(C)s3)n2)cc1
[9]
  AC50: 0.639 µM (active)
[10]
  EC50: 5.4 µM (active)
[11]
  IC50: 4.05 µM (active)
[12]
  IC50: 3.98 µM (active)
[13]
  AC50: 6.75 µM (active)
Vero
  CC50: 17.4 µM (active)
Protein RecA
  EC50: 16 µM (active)
[5]
  AC50: 14.2 µM (active)

## Cc1nn(-c2nc3ccccc3s2)c(N)c1-c1ccccc1
[14]
  EC50: < 0.1 µM (active)
H4
  EC50: > 120 µM (not active)
[15]
  EC50: 0.346 µM (active)
[16]
  EC50: 1.66 µM (active)
[17]
  EC50: 0.277 µM (active)

## COc1ccc(/C(O)=C\C=N\c2ccccn2)cc1
HT-1080
  EC50: > 50 µM (not active)
[1]
  EC50: 73.2 µM (active)
[18]
  AC50: 3.72 µM (active)

## N#C/C(=C(/O)COC(=O)CCc1ccc(S(=O)(=O)N2CCOCC2)cc1)c1nc2ccccc2[nH]1
[6]
  CC50: > 40 µM (active)

— ChEMBL document CHEMBL1201862, “PubChem BioAssay data set” (2004)
